Read-outs that look alike come from different tables or passages of the source.
Biological target: T1, pSTAT3 (pY705-STAT3) (Homo sapiens, UniProt P40763)
T1 construct: host or cells: cryopreserved PBMC
Assay: MSD-pSTAT-PBMC Assay (pSTAT3, IL-6 stimulated)
Assay type: cell-based
Description: Cryopreserved Peripheral Blood Mononuclear Cells (PBMC) are from AllCells. Recombinant Human IL-4 and IL-6 are from Peprotech. Mouse monoclonal anti-STAT3 antibody, rabbit monoclonal anti-pY705-STAT3 antibody, rabbit monoclonal Anti-pY641-STAT6 antibody, and lysis buffer are from Cell Signaling Technology (CST). Mouse monoclonal anti-STAT6 antibody is from BioLegend. Assay plates, blocker, and anti-rabbit secondary antibody are from Meso Scale Discovery (MSD).
Cryopreserved PBMCs were thawed out and allowed to recover overnight in IMDM+10% heat-inactivated FBS prior to plating 50,000 (STAT3) or 25,000 (STAT6) cells per well in 96-well U-bottom tissue culture plates. Cells were treated with compound for 3 hrs, then stimulated with 10 ng/mL IL-6 (STAT3) or 1 ng/mL IL-4 (STAT6) for 10 min. Cells were then spun down and washed with ice-cold PBS prior to lysing the cell pellet with 1× lysis buffer (CST) with 1× HALT protease and phosphatase inhibitor cocktail (Thermo). Lysates were transferred to and incubated overnight at 4° C. with shaking in QuickPlex 96-well high bind assay plates (MSD) pre-coated overnight with 30 μL per well of 0.6 μg/mL mouse monoclonal anti-STAT3 antibody (STAT3) or 2 μg/mL mouse monoclonal anti-STAT6 antibody (STAT6) in 1×PBS, and pre-blocked for 1 hour with 3% Blocker-A (MSD). Captured protein in the assay plates were then washed and probed with 25 μL per well of 0.25 μg/ml rabbit monoclonal anti-pY705-STAT3 antibody (STAT3) or 0.18 μg/ml rabbit monoclonal Anti-pY641-STAT6 antibody (STAT6) in 1% Blocker-A for 1 hour at room temperature with shaking, then washed and probed with 25 ul per well of 1 ug/mi Sulfo-TAG Labeled Goat Anti-Rabbit Antibody (MSD) in 1% Blocker-A for 1 hour at room temperature with shaking. Assay plates were then washed and 150 μL of 1× Read Buffer-T (MSD) was added to each well prior to reading on an SQ120 MSD Plate Reader. Assay signal from each sample was subtracted by the signal from unstimulated control wells and normalized to DMSO control wells. IC50 values were calculated using Graph Pad Prism Dose-Response Nonlinear Regression with variable slope. For both pSTAT3 and pSTAT6 A=≤100 nM; B=>100-1000 nM; C=>1000-3000 nM; and D=>3 μM.

[1] = PBMC, compound 3 hrs, then 10 ng/mL IL-6 for 10 min, MSD pY705-STAT3, read-out: pSTAT3

T1 sequence (P40763 whole entry): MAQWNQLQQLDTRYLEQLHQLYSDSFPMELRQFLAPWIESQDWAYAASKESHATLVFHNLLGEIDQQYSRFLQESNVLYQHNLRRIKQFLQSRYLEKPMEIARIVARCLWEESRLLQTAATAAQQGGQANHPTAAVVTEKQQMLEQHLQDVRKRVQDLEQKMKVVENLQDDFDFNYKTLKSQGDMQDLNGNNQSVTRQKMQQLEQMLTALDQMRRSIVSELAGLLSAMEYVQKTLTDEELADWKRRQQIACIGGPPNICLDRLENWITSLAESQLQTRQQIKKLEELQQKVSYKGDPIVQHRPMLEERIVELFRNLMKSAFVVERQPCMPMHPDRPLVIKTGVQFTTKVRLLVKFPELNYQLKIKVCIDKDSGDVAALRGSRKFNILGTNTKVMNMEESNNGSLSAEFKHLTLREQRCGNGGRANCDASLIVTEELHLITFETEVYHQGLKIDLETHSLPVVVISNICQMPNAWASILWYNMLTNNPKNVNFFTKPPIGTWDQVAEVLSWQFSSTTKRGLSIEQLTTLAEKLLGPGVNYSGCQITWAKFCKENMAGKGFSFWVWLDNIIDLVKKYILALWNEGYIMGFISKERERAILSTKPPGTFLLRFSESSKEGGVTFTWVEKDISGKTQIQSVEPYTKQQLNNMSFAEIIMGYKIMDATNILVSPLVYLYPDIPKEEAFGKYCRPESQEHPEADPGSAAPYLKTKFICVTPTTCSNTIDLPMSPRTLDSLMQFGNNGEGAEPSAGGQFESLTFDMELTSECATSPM

Structure (SMILES) | IC50 [1] | IC50
CC(C)OC(=O)[C@H](Cc1ccccc1)NP(=O)(Cc1ccc2sc(C(=O)N[C@H]3C[C@@H]4C[C@@H]4C[C@H]4CC[C@@H](C(=O)N5CC(C(=O)N6CCOCC6)C5)N4C3=O)cc2c1)Oc1ccccc1 (stereo partly drawn) [Compound 134, isopropyl (((2-(((3S,6S,7aS, 8aR,9aR)-3-(3-(morpholine-4-carbonyl)azetidine-1-carbonyl)-5-oxodecahydro-1H-cyclopropa[d]pyrrolo[1,2-a]azocin-6-yl)carbamoyl)benzo[b]thiophen-5-yl)methyl) (phenoxy)phosphoryl)-L-phenyl-alaninate] | 0.1 to 1 µM | 
CC(C)OC(=O)[C@H](C)NP(=O)(Cc1ccc2sc(C(=O)N[C@H]3C[C@@H]4C[C@@H]4C[C@H]4CC[C@@H](C(=O)N5CC(C(=O)N6CCOCC6)C5)N4C3=O)cc2c1)N[C@@H](C)C(=O)OC(C)C [Compound 147, diisopropyl 2,2′-((((2-(((3S,6S,7aS, 8aR,9aR)-3-(3-(morpholine-4-carbonyl)azetidine-1-carbonyl)-5-oxodecahydro-1H-cyclopropa[d]pyrrolo[1,2-a]azocin-6-yl)carbamoyl)benzo[b]thiophen-5-yl)methyl)phosphoryl)bis(azanediyl)) (2S,2′S)-dipropionate] | > 3 µM | 
CC(C)OC(=O)[C@H](C)NP(=O)(Oc1ccccc1)C(F)c1ccc2sc(C(=O)N[C@H]3C[C@@H]4C[C@@H]4C[C@H]4CC[C@@H](C(=O)N5CC(C(=O)N6CCOCC6)C5)N4C3=O)cc2c1 (stereo partly drawn) [Compound 153, isopropyl ((fluoro(2-(((3S,6S,7aS, 8aR,9aR)-3-(3-(morpholine-4-carbonyl)azetidine-1-carbonyl)-5-oxodecahydro-1H-cyclopropa[d]pyrrolo[1,2-a]azocin-6-yl)carbamoyl)benzo[b]thiophen-5-yl)methyl)phenoxy) phosphoryl)-L-alaninate] | 0.1 to 1 µM | 
O=C(N[C@H]1C[C@@H]2C[C@@H]2C[C@H]2CC[C@@H](C(=O)N3CC(C(=O)N4CCOCC4)C3)N2C1=O)c1cc2cc(C(F)(F)P(=O)(N[C@@H](CCc3ccccc3)C(=O)OCc3ccccc3)Oc3ccccc3)ccc2s1 (stereo partly drawn) [Compound 159, benzyl (2S)-2-(((difluoro(2-(((3S,6S,7aS, 8aR,9aR)-3-(3-(morpholine-4-carbonyl)azetidine-1-carbonyl)-5-oxodecahydro-1H-cyclopropa[d]pyrrolo[1,2-a]azocin-6-yl)carbamoyl)benzo[b]thiophen-5-yl)methyl) (phenoxy)phosphoryl)amino)-4-phenylbutanoate] |  | > 3 µM
CCOC(=O)[C@H](C)NC(=O)OCOP(=O)(Cc1ccc2sc(C(=O)N[C@H]3C[C@@H]4C[C@@H]4C[C@H]4CC[C@@H](C(=O)N5CC(C(=O)N6CCOCC6)C5)N4C3=O)cc2c1)OCOC(=O)N[C@@H](C)C(=O)OCC [Compound 160, diethyl 2,2′-((((((((2-(((3S, 6S,7aS,8aR, 9aR)-3-(3-(morpholine-4-carbonyl)azetidine-1-carbonyl)-5-oxodecahydro-1H-cyclopropa [d]pyrrolo[1,2-a]azocin-6-yl)carbamoyl)benzo[b]thiophen-5-yl)methyl)phosphoryl)bis(oxy))bis(methylene))bis(oxy))bis(carbonate))bis(azanediyl)) (2S,2′S)-dipropionate] | > 3 µM | 
CC(C)C[C@H](NP(=O)(Oc1ccccc1)C(F)(F)c1ccc2sc(C(=O)N[C@H]3C[C@@H]4C[C@@H]4C[C@H]4CC[C@@H](C(=O)N5CC(C(=O)N6CCOCC6)C5)N4C3=O)cc2c1)C(=O)OCc1ccccc1 (stereo partly drawn) [Compound 163, benzyl ((difluoro(2-(((3S,6S,7aS, 8aR,9aR)-3-(3-(morpholine-4-carbonyl)azetidine-1-carbonyl)-5-oxodecahydro-1H-cyclopropa[d]pyrrolo[1,2-a]azocin-6-yl)carbamoyl)benzo[b]thiophen-5-yl)methyl) (phenoxy)phosphoryl)-L-leucinate] | 1 to 3 µM | 
CC(C)CC(=O)SCCOP(=O)(N[C@@H](C)C(=O)OCc1ccccc1)C(F)(F)c1ccc2sc(C(=O)N[C@H]3C[C@@H]4C[C@@H]4C[C@H]4CC[C@@H](C(=O)N5CC(C(=O)N6CCOCC6)C5)N4C3=O)cc2c1 (stereo partly drawn) [Compound 164, benzyl ((difluoro(2-(((3S,6S,7aS, 8aR,9aR)-3-(3-(morpholine-4-carbonyl)azetidine-1-carbonyl)-5-oxodecahydro-1H-cyclopropa [d]pyrrolo[1,2-a]azocin-6-yl)carbamoyl)benzo[b]thiophen-5-yl)methyl)(2-((3-methyl-butanoyl)thio)ethoxy)phosphoryl)-L-alaninate] | > 3 µM | 
CC(C)OC(=O)[C@H](Cc1ccccc1)OP(=O)(Oc1ccccc1)C(F)(F)c1ccc2sc(C(=O)N[C@H]3C[C@@H]4C[C@@H]4C[C@H]4CC[C@@H](C(=O)N5CC(C(=O)N6CCOCC6)C5)N4C3=O)cc2c1 (stereo partly drawn) [Compound 167, isopropyl (2S)-2-(((difluoro(2-(((3S,6S,7aS, 8aR,9aR)-3-(3-(morpholine-4-carbonyl)azetidine-1-carbonyl)-5-oxodecahydro-1H-cyclopropa[d]pyrrolo[1,2-a]azocin-6-yl)carbamoyl)benzo[b]thiophen-5-yl)methyl) (phenoxy)phosphoryl)oxy)-3-phenyl-propanoate] | > 3 µM | 
C[C@H](OP(=O)(Oc1ccccc1)C(F)(F)c1ccc2sc(C(=O)N[C@H]3C[C@@H]4C[C@@H]4C[C@H]4CC[C@@H](C(=O)N5CC(C(=O)N6CCOCC6)C5)N4C3=O)cc2c1)C(=O)OCc1ccccc1 (stereo partly drawn) [Compound 174, benzyl (2S)-2-(((difluoro(2-(((3S,6S,7aS, 8aR,9aR)-3-(3-(morpholine-4-carbonyl)azetidine-1-carbonyl)-5-oxodecahydro-1H-cyclopropa[d]pyrrolo[1,2-a]azocin-6-yl)carbamoyl)benzo[b]thiophen-5-yl)methyl) (phenoxy)phosphoryl)oxy) propanoate] | 1 to 3 µM | 
CC(C)OC(=O)[C@H](C)NP(=O)(Cc1ccc2sc(C(=O)N[C@H]3C[C@@H]4C[C@@H]4C[C@H]4CC[C@@H](C(=O)N5CC(C(=O)N6CCOCC6)C5)N4C3=O)cc2c1)Oc1ccccc1Cl (stereo partly drawn) [Compound 191, isopropyl ((2-chlorophenoxy) ((2-(((3S,6S, 7aS,8aR,9aR)-3-(3-(morpholine-4-carbonyl)azetidine-1-carbonyl)-5-oxodecahydro-1H-cyclopropa[d]pyrrolo[1,2-a]azocin-6-yl)carbamoyl)benzo[b]thiophen-5-yl)methyl)phosphoryl)-L-alaninate] | 0.1 to 1 µM | 
CCOC(=O)[C@H](C)NP(=O)(Oc1ccccc1)C(F)(F)c1ccc2sc(C(=O)N[C@H]3C[C@@H]4C[C@@H]4C[C@H]4CC[C@@H](C(=O)N5CC(C(=O)N6CCOCC6)C5)N4C3=O)cc2c1 (stereo partly drawn) [Compound 192, ethyl ((difluoro(2-(((3S,6S,7aS, 8aR,9aR)-3-(3-(morpholine-4-carbonyl)azetidine-1-carbonyl)-5-oxodecahydro-1H-cyclopropa[d]pyrrolo[1,2-a]azocin-6-yl)carbamoyl)benzo[b]thiophen-5-yl)methyl) (phenoxy)phosphoryl)-L-alaninate] | > 3 µM | 
CC(C)OC(=O)COP(=O)(Oc1ccccc1)C(F)(F)c1ccc2sc(C(=O)N[C@H]3C[C@@H]4C[C@@H]4C[C@H]4CC[C@@H](C(=O)N5CC(C(=O)N6CCOCC6)C5)N4C3=O)cc2c1 (stereo partly drawn) [Compound 194, isopropyl 2-(((difluoro(2-(((3S,6S,7aS, 8aR,9aR)-3-(3-(morpholine-4-carbonyl)azetidine-1-carbonyl)-5-oxodecahydro-1H-cyclopropa[d]pyrrolo[1,2-a]azocin-6-yl)carbamoyl)benzo[b]thiophen-5-yl)methyl) (phenoxy)phosphoryl)oxy) acetate] | 0.1 to 1 µM | 
CC(C)OC(=O)[C@H](C)NP(=O)(Cc1ccc2sc(C(=O)N[C@H]3C[C@@H]4C[C@@H]4C[C@H]4CC[C@@H](C(=O)N5CC(C(=O)N6CCOCC6)C5)N4C3=O)cc2c1)OCC(F)(F)F (stereo partly drawn) [Compound 200, isopropyl (((2-(((3S,6S,7aS, 8aR,9aR)-3-(3-(morpholine-4-carbonyl)azetidine-1-carbonyl)-5-oxodecahydro-1H-cyclopropa [d]pyrrolo[1,2-a]azocin-6-yl)carbamoyl)benzo[b]thiophen-5-yl)methyl) (2,2,2-trifluoroethoxy)phosphoryl)-L-alaninate] | 0.1 to 1 µM | 
